PubChem BioAssay AID256 (DTP/NCI, 2004)
Values joined by “and” are separate entries in the source; they are usually repeats but may differ in a detail not shown here. Identical values can stand only once. Toxic doses and inconclusive results are not listed. Rule for the calls: active = survival T/C of 150% or more; inactive = T/C below 125% in these data.

Tested on: CD2F1 mice, L1210 leukemia ip, survival T/C
Assay: NCI In Vivo Anticancer Drug Screen. Data for tumor model L1210 Leukemia (intraperitoneal) in CD2F1 (CDF1) mice
Conditions: higher = longer survival
Summary of the method: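 Transplantable tumor in mice; compound-treated vs vehicle-treated groups. Read-out = treated/control ratio of the measured endpoint.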

[1] = endpoint: mean survival time, dose: 100.0 mg/kg/injection, schedule: Q04DX002 (ip), vehicle: saline with Tween-80
[2] = endpoint: mean survival time, dose: 200.0 mg/kg/injection, schedule: Q04DX002 (ip), vehicle: saline with Tween-80
[3] = endpoint: mean survival time, dose: 400.0 mg/kg/injection, schedule: Q04DX002 (ip), vehicle: saline with Tween-80
[4] = endpoint: mean survival time, dose: 50.0 mg/kg/injection, schedule: Q01DX009 (ip), vehicle: saline with Tween-80
[5] = endpoint: mean survival time, dose: 100.0 mg/kg/injection, schedule: Q01DX009 (ip), vehicle: saline with Tween-80
[6] = endpoint: mean survival time, dose: 200.0 mg/kg/injection, schedule: Q01DX009 (ip), vehicle: saline with Tween-80
[7] = endpoint: mean survival time, dose: 100.0 mg/kg/injection, schedule: Q04DX003 (ip), vehicle: saline with Tween-80
[8] = endpoint: mean survival time, dose: 200.0 mg/kg/injection, schedule: Q04DX003 (ip), vehicle: saline with Tween-80

Measured: T/C

CCOC(=O)c1ccc(NC(=O)Nc2nncs2)cc1
inactive: endpoint: mean survival time, dose: 6.25 mg/kg/injection, schedule: Q01DX009 (ip), vehicle: distilled water + Tween-80 101 % of control | endpoint: mean survival time, dose: 12.5 mg/kg/injection, schedule: Q01DX009 (ip), vehicle: distilled water + Tween-80 97 % of control and 103 % of control | endpoint: mean survival time, dose: 25.0 mg/kg/injection, schedule: Q01DX009 (ip), vehicle: distilled water + Tween-80 104 % of control and 107 % of control | endpoint: mean survival time, dose: 50.0 mg/kg/injection, schedule: Q01DX009 (ip), vehicle: distilled water + Tween-80 113 % of control and 115 % of control | endpoint: mean survival time, dose: 100.0 mg/kg/injection, schedule: Q01DX009 (ip), vehicle: distilled water + Tween-80 104 % of control and 112 % of control | endpoint: mean survival time, dose: 200.0 mg/kg/injection, schedule: Q01DX009 (ip), vehicle: distilled water + Tween-80 115 % of control

CC(C)(C)COC(=S)Oc1ccc(C(C)(C)C)cc1
inactive: [1] 89 % of control | [2] 104 % of control | [3] 100 % of control

Cc1cccc[n+]1C
inactive: endpoint: mean survival time, dose: 12.5 mg/kg/injection, schedule: Q04DX003 (ip), vehicle: saline 102 % of control | endpoint: mean survival time, dose: 25.0 mg/kg/injection, schedule: Q04DX003 (ip), vehicle: saline 104 % of control | endpoint: mean survival time, dose: 50.0 mg/kg/injection, schedule: Q04DX003 (ip), vehicle: saline 100 % of control

C=CCN(CC=C)C(=O)NCC(=O)OCC
inactive: [4] 101 % of control | [5] 95 % of control | [6] 97 % of control

O=S(=O)(c1cc(Cl)ccc1O)c1cc(Cl)ccc1O
inactive: endpoint: mean survival time, dose: 100.0 mg/kg/injection, schedule: Q01DX001 (ip), vehicle: saline 103 % of control | endpoint: mean survival time, dose: 200.0 mg/kg/injection, schedule: Q01DX001 (ip), vehicle: saline 100 % of control | endpoint: mean survival time, dose: 400.0 mg/kg/injection, schedule: Q01DX001 (ip), vehicle: saline 100 % of control

CCCCCCCCC(O)C(O)CCCCCCCC(=O)O (stereo unspecified)
inactive: endpoint: mean survival time, dose: 100.0 mg/kg/injection, schedule: Q04DX003 (ip), vehicle: other 93 % of control | endpoint: mean survival time, dose: 200.0 mg/kg/injection, schedule: Q04DX003 (ip), vehicle: other 98 % of control | endpoint: mean survival time, dose: 400.0 mg/kg/injection, schedule: Q04DX003 (ip), vehicle: other 95 % of control

CCCCCCCCCCCCCCCCOc1ccc(S(=O)(=O)NC2CCCCC2)cc1[N+](=O)[O-]
inactive: [7] 90 % of control | [8] 93 % of control | endpoint: mean survival time, dose: 400.0 mg/kg/injection, schedule: Q04DX003 (ip), vehicle: saline with Tween-80 94 % of control

O=c1[nH]c(C(F)(F)F)nc2c1nc1n2CCC1
inactive: endpoint: mean survival time, dose: 25.0 mg/kg/injection, schedule: Q01DX009 (ip), vehicle: saline with Tween-80 102 % of control | [4] 111 % of control | [5] 103 % of control

OCC1(OC2OC(CBr)C(O)C(O)C2O)OC(CBr)C(O)C1O (stereo unspecified)
inactive: [4] 98 % of control | [5] 91 % of control | [6] 95 % of control

C/C(CCC(=O)O)=N\NC(N)=O
inactive: [5] 97 % of control | [7] 95 % of control | [6] 97 % of control | [8] 90 % of control | endpoint: mean survival time, dose: 400.0 mg/kg/injection, schedule: Q01DX009 (ip), vehicle: saline with Tween-80 93 % of control

CC(=O)Nc1ccccc1C(=O)C(=O)Nc1ccccc1C(=O)NN
inactive: [4] 95 % of control | [5] 91 % of control | [6] 87 % of control

C[C@@]12C(=O)OC(=O)[C@]1(C)[C@H]1CC[C@@H]2O1
inactive: endpoint: median survival time, dose: 0.06 mg/kg/injection, schedule: Q01DX009 (ip), vehicle: Klucel (hydroxypropylcellulose) (HPC) 110 % of control | endpoint: median survival time, dose: 0.12 mg/kg/injection, schedule: Q01DX009 (ip), vehicle: Klucel (hydroxypropylcellulose) (HPC) 102 % of control | endpoint: median survival time, dose: 0.25 mg/kg/injection, schedule: Q01DX009 (ip), vehicle: Klucel (hydroxypropylcellulose) (HPC) 103 % of control | endpoint: median survival time, dose: 0.5 mg/kg/injection, schedule: Q01DX009 (ip), vehicle: Klucel (hydroxypropylcellulose) (HPC) 104 % of control | endpoint: median survival time, dose: 1.0 mg/kg/injection, schedule: Q01DX009 (ip), vehicle: Klucel (hydroxypropylcellulose) (HPC) 92 % of control

CCOC(=O)C1C(=O)CC(c2ccccc2)C(C#N)(c2ccccc2)C1(O)c1ccccc1 (stereo unspecified)
inactive: [1] 90 % of control | [2] 90 % of control | [3] 90 % of control
